The target of assay [1] is T1, recombinant full-length human GSK3β (Homo sapiens, UniProt P49841).
T1 construct: recombinant full-length human GSK3β (Upstate); purchased Upstate
The assay can be described thus: Luciferase-coupled cell-free GSK3β kinase assay. It is filed as biochemical. Summed up:
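GSK3β, 10-25 ng, was incubated with compound for 1 h at 30° C in MOPS pH 7.0 buffer containing 62.5 μM phospho-glycogen synthase peptide-2 and 5 μM ATP. Remaining ATP was read by KinaseGlo luminescence, and IC50 was fitted from % inhibition relative to maximal inhibition.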

Another assay has as its system E. coli, ATCC8739. Kind of assay: Antibacterial activity (MIC), E. coli. It is filed as cell-based. The conditions noted are these: Escherichia coli. The source says:
(§1) As used herein, a minimum inhibitory concentration (MIC) for bacterial growth assay is the lowest level of a compound needed to cause an inhibition to bacterial growth in culture medium. In certain embodiments, the antibacterial activity of compounds herein, measured as MIC.
(§2) In certain embodiments, GSK3 inhibitors provided herein are substantially free of antibacterial activity or having very low antibacterial activity. The antibacterial activity can be measured by methods known in the art by estimating a minimum inhibitory concentration (MIC) for test compounds. A MIC is the lowest level of a compound needed to cause an inhibition to bacterial growth in a culture medium. […] (Clinical and Laboratory Standards Institute. Methods for Dilution Antimicrobial Susceptibility Tests for Bacteria That Grow Aerobically; Approved Standard-Sixth Edition: CLSI document […]. CLSI, Wayne, Pa. (2003))
(§3) Antibacterial activity for E. coli, ATCC8739 andS. aureus Smith expressed as MIC (μM) is provided as follows: […]

The next assay relates to S. aureus Smith. The assay can be described thus: Antibacterial activity (MIC), S. aureus. It is filed as cell-based. The note with it: Staphylococcus aureus.
Source text: as §1, §2, §3

[2] abbreviates: ATCC8739, Table 2, E. coli ATCC8739, read-out: Antimicrobial MIC [μM] E. Coli.
Where [3] appears, read: Table 2, S. aureus Smith, read-out: Antimicrobial MIC [μM] S. aureus.
Where [4] appears, read: ATCC8739, Table 1, E. coli ATCC8739, read-out: Antibacterial MIC (μM) E.Coli.
[5] abbreviates: Table 1, read-out: Antibacterial MIC (μM) S. aureus Smith.

We go through 16 compounds from patent US8063221B2, “Aminoquinolones as GSK-3 inhibitors” (Kyorin Pharmaceutical Co., Ltd., priority 2006, dated 2011).

≈ marks a conversion by molar mass, not a printed value. Read-outs that look alike come from different tables or passages of the source.

T1 sequence (P49841 whole entry): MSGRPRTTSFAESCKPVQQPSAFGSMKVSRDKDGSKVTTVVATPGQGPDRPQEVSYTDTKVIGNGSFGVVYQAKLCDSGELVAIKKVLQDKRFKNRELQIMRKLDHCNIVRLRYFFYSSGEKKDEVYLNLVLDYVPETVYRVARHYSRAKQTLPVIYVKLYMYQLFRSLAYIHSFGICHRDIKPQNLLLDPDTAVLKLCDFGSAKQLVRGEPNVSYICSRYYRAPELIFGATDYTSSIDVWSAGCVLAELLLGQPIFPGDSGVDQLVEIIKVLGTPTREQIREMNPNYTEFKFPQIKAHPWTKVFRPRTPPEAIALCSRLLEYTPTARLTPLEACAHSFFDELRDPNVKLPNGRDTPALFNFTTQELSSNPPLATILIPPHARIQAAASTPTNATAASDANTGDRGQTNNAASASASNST

What is called IC50 is the concentration needed to halve the response being measured. Usually MIC stands for the lowest concentration found to suppress growth. On to `CC1(C)COc2c(NCCCN3CCCC3=O)c(F)c(N)c3c(=O)c(C(=O)O)cn1c23` [compound 41], for which the IC50 in assay [1] (Table 2) is less than 100 nM. Also, the MIC in the assay on E. coli, ATCC8739 (setting [2]) is greater than 50 µM; with S. aureus Smith (setting [3]), greater than 50 µM.
On to `Nc1c(F)c(NCCNc2cccc3ccccc23)c(F)c2c1c(=O)c(C(=O)O)cn2C1CC1` [compound 43], for which the IC50 in assay [1] (Table 1) was less than 100 nM. Further, the MIC with E. coli, ATCC8739 (setting [4]) fell in the range of 0.5 to 10 µM (≈ 0.232 to 4.64 µg/mL); in the assay on S. aureus Smith (setting [5]) it was 0.5 to 10 µM (≈ 0.232 to 4.64 µg/mL).
With `Nc1c(F)c(NCCCc2ccccc2)c(F)c2c1c(=O)c(C(=O)O)cn2CCc1ccccc1` [compound 46], the IC50 in assay [1] (Table 1) is less than 100 nM. Also, the MIC lay in the range of 10 to 50 µM (≈ 4.78 to 23.9 µg/mL) in the assay with E. coli, ATCC8739 (setting [4]) and 10 to 50 µM (≈ 4.78 to 23.9 µg/mL) with S. aureus Smith (setting [5]).
For `Nc1c(F)c(NCCc2ccncc2)c(F)c2c1c(=O)c(C(=O)O)cn2CCc1ccccc1` [compound 47], in assay [1] (Table 1), the IC50 was less than 100 nM. The MIC with E. coli, ATCC8739 (setting [4]) was 10 to 50 µM (≈ 4.64 to 23.2 µg/mL); with S. aureus Smith (setting [5]), 10 to 50 µM (≈ 4.64 to 23.2 µg/mL).
Turning to `CC(C)C[C@H]1COc2c(NCCCn3cnc4ccccc43)c(F)c(N)c3c(=O)c(C(=O)O)cn1c23` [compound 48], the IC50 in assay [1] (Table 2) was less than 100 nM. In addition, the MIC in the assay on E. coli, ATCC8739 (setting [2]) is 10 to 50 µM (≈ 4.94 to 24.7 µg/mL); in the assay with S. aureus Smith (setting [3]) it was 10 to 50 µM (≈ 4.94 to 24.7 µg/mL).
Turning to `Nc1c(F)c(NCCCn2ccnc2)c(F)c2c1c(=O)c(C(=O)O)cn2CCc1ccccc1` [compound 48], the IC50 in assay [1] (Table 1) is less than 100 nM. Besides, the MIC with E. coli, ATCC8739 (setting [4]) is greater than 50 µM; with S. aureus Smith (setting [5]), greater than 50 µM.
For the compound `Nc1c(F)c(NCCNc2ccccn2)c(F)c2c1c(=O)c(C(=O)O)cn2CCc1ccccc1` [compound 49], the IC50 in assay [1] (Table 1) was in the range of 100 to 500 nM. Also, the MIC with E. coli, ATCC8739 (ATCC8739, read-out: Antibacterial MIC (μM) E.Coli) is 10 to 50 µM (≈ 4.79 to 24 µg/mL); in the assay with S. aureus Smith (read-out: Antibacterial MIC (μM) S. aureus Smith), 10 to 50 µM (≈ 4.79 to 24 µg/mL).
Take `CC(C)OCCCNc1c(F)c(N)c2c(=O)c(C(=O)O)cn(CCc3ccccc3)c2c1F` [compound 50]: the IC50 in assay [1] (Table 1) is 500 to 1000 nM. The MIC in the assay with E. coli, ATCC8739 (setting [4]) was 0.5 to 10 µM (≈ 0.23 to 4.59 µg/mL); in the assay with S. aureus Smith (setting [5]), 0.5 to 10 µM (≈ 0.23 to 4.59 µg/mL).
Take `CC(C)C[C@H]1COc2c(NCCCc3ccccc3)c(F)c(N)c3c(=O)c(C(=O)O)cn1c23` [compound 50]: the IC50 in assay [1] (Table 2) was less than 100 nM. The MIC in the assay with E. coli, ATCC8739 (setting [2]) was 10 to 50 µM (≈ 4.54 to 22.7 µg/mL); in the assay with S. aureus Smith (setting [3]), 10 to 50 µM (≈ 4.54 to 22.7 µg/mL).
For `CC(C)C[C@H]1COc2c(NCCNc3ccccn3)c(F)c(N)c3c(=O)c(C(=O)O)cn1c23` [compound 51], the IC50 in assay [1] (Table 2) was less than 100 nM. The MIC in the assay with E. coli, ATCC8739 (setting [2]) lay in the range of 10 to 50 µM (≈ 4.55 to 22.8 µg/mL); with S. aureus Smith (setting [3]), 10 to 50 µM (≈ 4.55 to 22.8 µg/mL).
For `Nc1c(F)c(NCCNc2cccc3ccccc23)c(F)c2c1c(=O)c(C(=O)O)cn2CCc1ccccc1` [compound 51], the IC50 in assay [1] (Table 1) fell in the range of 100 to 500 nM. Also, the MIC with E. coli, ATCC8739 (setting [4]) is 10 to 50 µM (≈ 5.29 to 26.4 µg/mL); in the assay with S. aureus Smith (setting [5]) it was 10 to 50 µM (≈ 5.29 to 26.4 µg/mL).
Consider `CC1(C)COc2c(NCCCn3cnc4ccccc43)c(F)c(N)c3c(=O)c(C(=O)O)cn(c23)C1` [compound 52], for which, in assay [1] (Table 2), the IC50 lay within 100 to 500 nM. For the same compound, the MIC in the assay on E. coli, ATCC8739 (setting [2]) is 0.5 to 10 µM (≈ 0.24 to 4.8 µg/mL); in the assay with S. aureus Smith (setting [3]), 0.5 to 10 µM (≈ 0.24 to 4.8 µg/mL).
For the compound `Nc1c(F)c(NCCCc2ccccc2)c(F)c2c1c(=O)c(C(=O)O)cn2C1CCCC1` [compound 52], the IC50 in assay [1] (Table 1) was less than 100 nM. Moreover, the MIC fell in the range of 10 to 50 µM (≈ 4.41 to 22.1 µg/mL) in the assay with E. coli, ATCC8739 (setting [4]) and 10 to 50 µM (≈ 4.41 to 22.1 µg/mL) in the assay on S. aureus Smith (setting [5]).
On to `Nc1c(F)c(NCCc2ccncc2)c(F)c2c1c(=O)c(C(=O)O)cn2C1CCCC1` [compound 53], for which the IC50 in assay [1] (Table 1) was in the range of 100 to 500 nM. In addition, the MIC with E. coli, ATCC8739 (setting [4]) is 10 to 50 µM (≈ 4.28 to 21.4 µg/mL); with S. aureus Smith (setting [5]), 10 to 50 µM (≈ 4.28 to 21.4 µg/mL).
Turning to `CC(C)[C@H]1COc2c(NCCCn3ccnc3)c(F)c(N)c3c(=O)c(C(=O)O)cn1c23` [compound 54], the IC50 in assay [1] (Table 2) was less than 100 nM. Further, the minimum inhibitory concentration (MIC) in the assay with E. coli, ATCC8739 (setting [2]) was greater than 50 µM; with S. aureus Smith (setting [3]) it was 10 to 50 µM (≈ 4.29 to 21.5 µg/mL).
For the compound `Nc1c(F)c(NCCCn2ccnc2)c(F)c2c1c(=O)c(C(=O)O)cn2C1CCCC1` [compound 54], the IC50 in assay [1] (Table 1) is less than 100 nM. Moreover, the MIC is greater than 50 µM in the assay with E. coli, ATCC8739 (setting [4]) and greater than 50 µM in the assay on S. aureus Smith (setting [5]).
